# Literature values in patent publication US7067315B2, “Identification of anti-protozoal agents” (President and Fellows of Harvard College, priority 2001, dated 2006).
# Test system: Apicomplexan parasites
# Details: several Apicomplexan parasites; by net actin filament depolymerization
smiles,measurement,value
C=C1[C@@H](C)[C@H]2[C@H](Cc3ccccc3)NC(=O)[C@]23[C@H](OC(C)=O)/C=C/[C@@](C)(O)C(=O)[C@@H](C)C/C=C/[C@H]3[C@@H]1O [cytochalsin D],inhibition of parasite motility and invasion,inhibits parasite motility and invasion
